Where “and” joins values, the source holds several entries; their conditions need not be identical. Identical values can stand only once.
Tested on: tissue mRNA levels
Test: Quantitative PCR of tissue gene expression in treated mice
Format: in vivo, mouse
Set-up: key to mRNA levels Scap / mRNA levels Insig1 / mRNA levels Ldlr / mRNA levels Mttp / mRNA levels Atgl / mRNA levels Tnfaip2 / mRNA levels Rxra / mRNA levels Srebf1 / mRNA levels Ucp2: mRNA level normalized to ribosomal L32 mRNA (internal control)
Conditions: for relative mRNA levels SREBP1a, group mean (Mean 2) / relative mRNA levels SREBP2, group mean (Mean 2) / relative mRNA levels SREBP1c, group mean (Mean 2) / relative mRNA levels Srebf-1a / relative mRNA levels Srebf-1c / relative mRNA levels Srebf-2: Figure 6a; for relative mRNA levels SREBP1a, group mean (Mean 2) / relative mRNA levels SREBP2, group mean (Mean 2) / relative mRNA levels SREBP1c, group mean (Mean 2): N=6; for relative mRNA levels SREBP1a, group mean (Mean 2): VEH mean 0.9485; for relative mRNA levels SREBP2, group mean (Mean 2): VEH mean 1.001; for relative mRNA levels SREBP1c, group mean (Mean 2): VEH mean 1.004; for relative mRNA levels Srebf-1a / relative mRNA levels Srebf-1c / relative mRNA levels Srebf-2: relative to VEH
Experimental: Total RNA from cells and tissues was extracted by Trizol (Invitrogen) and reverse-transcribed into cDNA using the prime script RT reagent kit with gDNA eraser (Takara). The mRNA levels were determined using the SYBR-green PCR kit (Takara) with ABIPRISM 7900HT Sequence detector (ABI) according to the manufacturer’s protocol. The quantitative qPCR primers used in this work are listed in Supplementary Table 1. Ribosomal L32 mRNA levels were used as an internal control.

[1] = DIO mice, i.p. 20 mg/kg, 5 weeks
[2] = APC 10mg/kg, individual animals
[3] = APC 20mg/kg, individual animals
[4] = Figure 6c, liver of DIO mice, individual animals
[5] = Figure 6e, BAT genes in DIO, individual animals
[6] = Figure 6e, group mean of APC-treated mice
[7] = Figure 6f, CRTC2KO mice, oral APC
[8] = Figure 6f, CRTC2KO mice, oral APC, group mean, N 6

## CC(C)=CCc1cc(C=CC(=O)O)cc(CC=C(C)C)c1O [APC, 3,5-diprenyl-4-hydroxycinnamic acid]
C57 WT mice, one oral dose 20 mg/kg
  mRNA levels of CREB/CRTC2 regulated genes in muscle, brain, spleen, kidney, small intestine, pancreas: did not significantly affect
CRTC2KO mice, Met 200mg/kg or APC-20
  Mean Diff. (Veh. vs. treated; head of the quantity not shown, section just before Figure 7h): -0.1036
DIO and db/db mice, i.p. 20 mg/kg, 5 weeks
  hepatic mRNA levels of G6pc, Pck1 and Pgc-1α: remarkably reduced
DIO mice
  Pgc-1α and Pgc-1β expression in liver, white and brown adipose tissues: significantly reduced
  hepatic mRNA levels of SREBP target genes: reduced
[1]
  liver mRNA levels of Lxra: decreased
  liver mRNA levels of Pparα, Pparγ and Rxrα: little effect
DIO mice, i.p. 5 weeks
  hepatic mRNA levels of Srebp-1a, 1c and 2: significantly decreased
APC 10mg/kg
  relative mRNA levels SREBP1a, group mean (Mean 2): 0.6192
  relative mRNA levels SREBP2, group mean (Mean 2): 0.7198
  relative mRNA levels SREBP1c, group mean (Mean 2): 0.5199
[2]
  relative mRNA levels Srebf-1a: 0.7632 and 0.606 and 0.6752 and 0.5408 and 0.5316 and 0.5987
  relative mRNA levels Srebf-1c: 0.3899 and 0.7333 and 0.3575 and 0.4477 and 0.6292 and 0.5618
  relative mRNA levels Srebf-2: 0.89 and 0.7028 and 0.7151 and 0.6142 and 0.6241 and 0.7725
APC 20mg/kg
  relative mRNA levels SREBP1a, group mean (Mean 2): 0.576
  relative mRNA levels SREBP2, group mean (Mean 2): 0.6534
  relative mRNA levels SREBP1c, group mean (Mean 2): 0.4898
[3]
  relative mRNA levels Srebf-1a: 0.7402 and 0.4743 and 0.5973 and 0.6221 and 0.5888 and 0.4336
  relative mRNA levels Srebf-1c: 0.4905 and 0.5691 and 0.5139 and 0.3623 and 0.4504 and 0.5527
  relative mRNA levels Srebf-2: 0.7803 and 0.8192 and 0.5739 and 0.6729 and 0.5114 and 0.5627
Figure 6c, liver of DIO mice, group mean, Mean of VEH 0.9497
  mRNA levels Pgc-1a, Mean of APC: 0.7169
Figure 6c, liver of DIO mice, group mean, Mean of VEH 0.9581
  mRNA levels Hmgcs, Mean of APC: 0.6963
Figure 6c, liver of DIO mice, group mean, Mean of VEH 0.9596
  mRNA levels Pgc-1b, Mean of APC: 0.6511
Figure 6c, liver of DIO mice, group mean, Mean of VEH 0.9821
  mRNA levels Acl, Mean of APC: 0.5548
Figure 6c, liver of DIO mice, group mean, Mean of VEH 0.983
  mRNA levels Insig1, Mean of APC: 1.256
Figure 6c, liver of DIO mice, group mean, Mean of VEH 0.9914
  mRNA levels Ldlr, Mean of APC: 0.5526
Figure 6c, liver of DIO mice, group mean, Mean of VEH 0.9918
  mRNA levels ApoE, Mean of APC: 0.7552
Figure 6c, liver of DIO mice, group mean, Mean of VEH 0.995
  mRNA levels Acsl1, Mean of APC: 0.6996
Figure 6c, liver of DIO mice, group mean, Mean of VEH 1.003
  mRNA levels Insig2b, Mean of APC: 1.315
Figure 6c, liver of DIO mice, group mean, Mean of VEH 1.007
  mRNA levels Lxra, Mean of APC: 0.5396
Figure 6c, liver of DIO mice, group mean, Mean of VEH 1.031
  mRNA levels Cel, Mean of APC: 2.279
Figure 6c, liver of DIO mice, group mean, Mean of VEH 1.033
  mRNA levels Acc, Mean of APC: 0.6639
Figure 6c, liver of DIO mice, group mean, Mean of VEH 1.034
  mRNA levels Pcsk9, Mean of APC: 0.8062
Figure 6c, liver of DIO mice, group mean, Mean of VEH 1.037
  mRNA levels Cpt1, Mean of APC: 2.106
Figure 6c, liver of DIO mice, group mean, Mean of VEH 1.041
  mRNA levels Mttp, Mean of APC: 0.553
Figure 6c, liver of DIO mice, group mean, Mean of VEH 1.044
  mRNA levels Scd1, Mean of APC: 1.532
Figure 6c, liver of DIO mice, group mean, Mean of VEH 1.051
  mRNA levels Lipg, Mean of APC: 1.548
Figure 6c, liver of DIO mice, group mean, Mean of VEH 1.052
  mRNA levels ApoB, Mean of APC: 0.8089
Figure 6c, liver of DIO mice, group mean, Mean of VEH 1.059
  mRNA levels Hmgcl, Mean of APC: 0.5112
Figure 6c, liver of DIO mice, group mean, Mean of VEH 1.06
  mRNA levels Scap, Mean of APC: 0.7595
Figure 6c, liver of DIO mice, group mean, Mean of VEH 1.072
  mRNA levels Mgll, Mean of APC: 1.87
Figure 6c, liver of DIO mice, group mean, Mean of VEH 1.142
  mRNA levels Fasn, Mean of APC: 0.5649
[4]
  mRNA levels Acc: 0.6012 and 0.6553 (2×) and 0.7255 and 0.7608 and 0.5855
  mRNA levels Acl: 0.303 and 0.3204 and 0.7174 and 0.7065 and 0.7574 and 0.524
  mRNA levels Acsl1: 0.5351 and 0.5673 and 0.8699 and 0.7501 and 0.6417 and 0.8334
  mRNA levels ApoB: 0.8489 and 0.8438 and 0.8351 and 0.7306 and 0.803 and 0.7922
  mRNA levels ApoE: 0.7234 and 0.6714 and 0.8902 and 0.7927 and 0.794 and 0.6594
  mRNA levels Cel: 1.61 and 1.758 and 2.648 and 2.653 and 2.573 and 2.434
  mRNA levels Cpt1: 2.1427 and 2.6 and 2.578 and 1.766 and 1.996 and 1.554
  mRNA levels Fasn: 0.5582 and 0.6145 and 0.8825 and 0.8943 and 0.221 and 0.219
  mRNA levels Hmgcl: 0.8031 and 0.3302 and 0.7226 and 0.5347 and 0.468 and 0.2089
  mRNA levels Hmgcs: 0.6002 and 0.7721 and 0.6122 and 0.7412 and 0.7304 and 0.7219
  mRNA levels Insig1: 1.154 and 1.297 and 1.198 and 1.324 and 1.22 and 1.341
  mRNA levels Insig2b: 1.5012 and 1.204 and 1.275 and 1.326 and 1.226 and 1.358
  mRNA levels Ldlr: 0.5776 and 0.5891 and 0.5493 and 0.4914 and 0.6354 and 0.4723
  mRNA levels Lipg: 1.701 and 1.759 and 1.656 and 1.597 and 1.253 and 1.321
  mRNA levels Lxra: 0.4169 and 0.5629 and 0.5095 and 0.7537 and 0.4614 and 0.533
  mRNA levels Mgll: 1.478 and 2.215 and 1.692 and 2.155 and 1.663 and 2.019
  mRNA levels Mttp: 0.5875 and 0.5564 and 0.479 and 0.4246 and 0.6126 and 0.6576
  mRNA levels Pcsk9: 0.8854 and 0.7972 and 0.6933 and 0.8757 and 0.803 and 0.7825
  mRNA levels Pgc-1a: 0.841 and 0.8137 and 0.7443 and 0.6176 and 0.7797 and 0.5053
  mRNA levels Pgc-1b: 0.6848 and 0.6024 and 0.8301 and 0.5369 and 0.6396 and 0.6129
  mRNA levels Scap: 0.7134 and 0.6924 and 0.8986 and 0.7526 and 0.8965 and 0.6035
  mRNA levels Scd1: 1.593 and 1.385 and 1.755 and 1.2873 and 1.57 and 1.603
Figure 6e
  relative mRNA levels Cpt1, Difference (Mean of VEH - Mean of APC): -0.4965
  relative mRNA levels Glut4, Difference (Mean of VEH - Mean of APC): -0.8396
  relative mRNA levels Hsl, Difference (Mean of VEH - Mean of APC): -0.512
  relative mRNA levels Mgl1, Difference (Mean of VEH - Mean of APC): -0.489
  relative mRNA levels Pgc-1α, Difference (Mean of VEH - Mean of APC): 0.4001
  relative mRNA levels Pgc-1β, Difference (Mean of VEH - Mean of APC): 0.2648
  relative mRNA levels Scd1, Difference (Mean of VEH - Mean of APC): 0.2529
  relative mRNA levels Ucp1, Difference (Mean of VEH - Mean of APC): 0.6029
  relative mRNA levels Ucp2, Difference (Mean of VEH - Mean of APC): -0.7752
  relative mRNA levels Ucp3, Difference (Mean of VEH - Mean of APC): -0.7811
Figure 6e, BAT genes in DIO, group mean, Mean of VEH 1.022
  mRNA levels Rxrα, Mean of APC: 0.997
Figure 6e, BAT genes in DIO, group mean, Mean of VEH 1.045
  mRNA levels Pparγ, Mean of APC: 1.136
Figure 6e, BAT genes in DIO, group mean, Mean of VEH 1.047
  mRNA levels Pparα, Mean of APC: 1.002
Figure 6e, BAT genes in DIO, group mean, Mean of VEH 1.079
  mRNA levels Srebf-1c, Mean of APC: 0.67
[5]
  mRNA levels Cpt1: 1.405 and 1.301 and 1.366 and 1.861 and 1.273 and 1.67
  mRNA levels Glut4: 2.222 and 2.223 and 2.091 and 1.366 and 1.861 and 1.914
  mRNA levels Hsl: 1.929 and 1.285 and 1.044 and 1.492 and 1.691 and 1.784
  mRNA levels Mgl1: 1.571 and 1.671 and 1.448 and 1.19 and 1.394 and 1.429
  mRNA levels Pgc-1a: 0.4882 and 0.6962 and 0.7342 and 0.6823 and 0.3242 and 0.5895
  mRNA levels Pgc-1b: 0.7936 and 0.7877 and 0.8205 and 0.6233 and 0.5976 and 0.7915
  mRNA levels Ppara: 0.957 and 1.069 and 1.282 and 0.4348 and 0.8215 and 1.448
  mRNA levels Pparg: 1.223 and 1.057 and 1.279 and 0.9002 and 1.182 and 1.178
  mRNA levels Rxra: 1.299 and 0.7585 and 0.6344 and 1.152 and 1.145 and 0.9935
  mRNA levels Scd1: 0.7542 and 0.5583 and 0.6317 and 0.6691 and 0.5321 and 0.7971
  mRNA levels Srebf1: 0.76 and 0.6196 and 0.6214 and 0.595 and 0.7194 and 0.7042
  mRNA levels Ucp1: 0.4272 and 0.4661 and 0.4353 and 0.3244 and 0.4398 and 0.6531
  mRNA levels Ucp2: 1.948 and 2.049 and 1.871 and 1.366 and 1.861 and 1.31
  mRNA levels Ucp3: 2.385 and 1.61 and 1.317 and 1.964 and 1.366 and 1.861
[6]
  relative mRNA levels Cpt1, Mean of APC: 1.479
  relative mRNA levels Glut4, Mean of APC: 1.946
  relative mRNA levels Hsl, Mean of APC: 1.538
  relative mRNA levels Mgl1, Mean of APC: 1.451
  relative mRNA levels Pgc-1α, Mean of APC: 0.5858
  relative mRNA levels Pgc-1β, Mean of APC: 0.7357
  relative mRNA levels Scd1, Mean of APC: 0.6571
  relative mRNA levels Ucp1, Mean of APC: 0.4576
  relative mRNA levels Ucp2, Mean of APC: 1.734
  relative mRNA levels Ucp3, Mean of APC: 1.751
[7]
  mRNA of Srebf-1c, Mean Diff. APC - VEH: 0.1559
  mRNA of Srebf-2, Mean Diff. APC - VEH: -0.03887
[8]
  mRNA of Srebf-1c, Mean 1 (APC): 0.6887
  mRNA of Srebf-2, Mean 1 (APC): 0.7827
